Experiment: In vitro skin permeation study in Franz diffusion cells
Assay type: in vitro ADME, human
Conditions: all formulations
Description: The steady-state flux was estimated from the slope of the linear portion of the plot of cumulative mass in the acceptor phase over time.

CC(C(=O)O)c1cccc(C(=O)c2ccccc2)c1 (stereo not shown) [KET, ketoprofen]
lag time, KET: below 0

Source: publication PMC10264579 (Frontiers in Pharmacology, 2023)
